Data from PMC9848270, “Synthesis and biological assessment of indole derivatives containing penta-heterocycles scaffold as novel anticancer agents towards A549 and K562 cells” (Journal of Enzyme Inhibition and Medicinal Chemistry, 2023).
Read-outs that look alike come from different tables or passages of the source.

Legend:
[1] = test system: human chronic myeloid leukaemia cells (K562); experiment: MTT antiproliferative assay, K562; format: cell-based; details: for inhibition at 10 µM: K562, 10 μM, read-out: Inhibition rate, K562
Protocol: (§1) A549, PC-3, HepG2 and K562 cells were purchased from the Kunming cell bank of the Chinese academy of sciences. All cell lines were cultured in DMEM or RPMI 1640 complete medium. Logarithmic growth cells were cultured in 96-well plates at a concentration of 10^4 cells per well and pre-cultured for 24 h before adding test compounds. The MTT test with 5-Fluorouracil and Gefitinib as reference compounds were used to evaluate antiproliferative activity of target compounds in four human cancer line cells. For the estimation of the inhibition concentration (IC50), the Graph Pad Prism (GraphPad Software, San Diego, CA) was used.

[2] = MTT cytotoxicity, normal cell line HEK293; format: cell-based, human; details: human; for IC50 at 48 h: HEK293 cells (normal cell line), MTT assay, normal cell line, CC50, read-out: In vitro cytotoxicity IC50, HEK293
[3] = test system: normal cell line (HEK293); experiment: MTT cytotoxicity, normal cell line HEK293; format: cell-based, human; details: Homo sapiens, HEK293; 10 μM; read-out: Inhibition rate, HEK293
[4] = test system: human liver cancer cells (HepG2); experiment: MTT antiproliferative assay, HepG2; format: cell-based; details: for inhibition at 10 µM: read-out: Inhibition rate, HepG2; for IC50: MTT assay, 48 h, read-out: In vitro cytotoxicity IC50, HepG2
Protocol: as §1

[5] = test system: K562 cells; experiment: Cell cycle analysis (PI staining, flow cytometry), K562; format: cell-based, human
Protocol: (§2) A549 or K562 cells were separately seeded at 4.0 × 10^5cells/well in six-well plates and incubated for 24 h until adherent. […] After treatment, the cells were collected, and washed twice with pre-cooled PBS and then fixed with ice-cold ethanol (70%), subsequently kept 4 °C for overnight. After washing twice with PBS, cells were incubated at 37 °C with 100 µ L RNase A for 30 min. After this, cells were incubated with 400 µL PI for 30 min at 4 °C. Finally, the cell cycle distribution of compound 10 b was analysed via the BD FACSCalibur flow cytometry (American BD Corporation Shanghai Co. Ltd.)

[6] = test system: A549 cells; experiment: Cell cycle analysis (PI staining, flow cytometry), A549; format: cell-based, human; details: for DNA contents of the live population, G0/G1 phase, A549 / DNA contents of the live population, G2/M phase, A549 / DNA contents of the live population, S phase, A549: 4 µM, 48 h
Protocol: as §2

[7] = test system: human non-small cell lung cancer cells (A549); experiment: MTT antiproliferative assay, A549; format: cell-based; details: for inhibition at 10 µM: A549, 10 μM, read-out: Inhibition rate, A549
Protocol: as §1

[8] = test system: K562 cells; experiment: Annexin V-FITC/PI apoptosis flow cytometry, K562; format: cell-based, human; set-up: total numbers of apoptotic cells, K562: dose or concentration left out as unconfirmed; details: 48 h; for Q2, late apoptotic cells, K562: annexin V-FITC/PI
Protocol: (§3) Annexin-V/FITC assay, after the adherent cells grew stably in the 6-well plate, each group was reacted with different concentrations of compound solutions for 48 h. Then, cells were collected by trypsinization without EDTA, rinsed twice with PBS, followed by the Annexin V-FITC/PI apoptosis detection kit (Solarbio, Bei Jing, China) according to the kit instructions, flow cytometry by BD FACSCalibur instrument (American BD Company Shanghai Co., Ltd.).

[9] = test system: A549 cells; experiment: Annexin V-FITC/PI apoptosis flow cytometry, A549; format: cell-based, human; details: 48 h; for Q2, late apoptotic cells, A549: annexin V-FITC/PI
Protocol: as §3

[10] = test system: human prostate cancer cells (PC-3); experiment: MTT antiproliferative assay, PC-3; format: cell-based; details: for IC50: 48 h, MTT assay, read-out: In vitro cytotoxicity IC50, PC-3; for inhibition at 10 µM: read-out: Inhibition rate, PC-3
Protocol: as §1

[11] = test system: A549 cells; experiment: Wound healing migration assay, A549; format: cell-based, human; details: 1 µM
Protocol: After 24 h of growth, cells were placed in a 6-well plate, scratched using a 10 µL pipet tip on the cell surface. Then, gently wash twice with medium to remove the detached cells. The cells were treated with compound 10 b with 0.5 and 1.0 µM followed by 48 h incubation and photographed using an inverted microscope.

[12] = test system: A549 cells; experiment: DAPI staining, A549; format: cell-based, human; details: 1, 2 and 4 µM, 48 h
Protocol: DAPI staining assay, A549 or K562 cells were separately seeded at 4.0 × 10^5 cells per well in six–well plates and incubated for 24 h until adherent. Next, the cells were treated with 10 b at 0, 1, 2 and 4 µM for 48 h. Then the cells were fixed with 4% paraformaldehyde for 15 min, and 1 ml/well of DAPI staining dye was added for 20 min in the dark. After adding the anti-fluorescence quencher, the cells can be imaged by an inverted fluorescence microscope.

[13] = test system: EGFR, p-EGFR, Akt and p-Akt levels in A549; experiment: Western blot, A549; format: cell-based, human; details: 0.5 and 1 μM, 48 h
Protocol: (§4) Cells were treated with different concentrations of compound for 48 h. After incubation, the cells were washed and collected. Total cell extracts were prepared with RIPA buffer, containing protease inhibitor and phosphatase inhibitor. The lysate was incubated at 0 °C for 60 min, and centrifuged at 12,000 rpm for 15 min at 4 °C to remove cellular debris. Next, the protein concentration was detected using BCA protein concentration assay kit (Beyotime, Shanghai). 20 µg of total protein was subjected to gel electrophoresis and transferred to PVDF membranes (Millipore, Burlington, MA, USA). After blocking in 5% BSA blocking buffer for 60 min, then incubated with primary antibody overnight at 4 °C, washed three times with TBST for 5 min each, followed by incubation with secondary antibody and washed. The blot was developed and exposed by chemiluminescence developer solution, which was placed on a chemiluminescence developer (Pierce, Rockford, Illinois, USA).

[14] = test system: MDM2 and p53 levels in K562; experiment: Western blot, K562; format: cell-based, human; details: 0.5 µM, 48 h
Protocol: as §4

[15] = molecular target: epidermal growth factor receptor (EGFR); details: read-out: EGFR inhibition IC50; cited from earlier work
[16] = K562, 48 h, MTT assay, 48 h, read-out: In vitro cytotoxicity IC50, K562
[17] = A549, 48 h, MTT assay, 48 h, read-out: In vitro cytotoxicity IC50, A549

| SMILES | inhibition at 10 µM [1] [%] | IC50 [1, 16] [nM] | IC50 at 48 h [2] [nM] | inhibition at 10 µM [3] [%] | inhibition at 10 µM [4] [%] | IC50 [4] [nM] | DNA contents of the live population, G2/M phase, K562 ([5]; 4 µM, 48 h) [%] | DNA contents of the live population, S phase, K562 ([5]; 4 µM, 48 h) [%] | DNA contents of the live population, G0/G1 phase, A549 [6] [%] | DNA contents of the live population, G2/M phase, A549 [6] [%] | DNA contents of the live population, S phase, A549 [6] [%] | inhibition at 10 µM [7] [%] | IC50 [7, 17] [nM] | IC50 ([10]; Homo sapiens) [nM] | inhibition at 10 µM ([10]; Homo sapiens) [%] | further results |
| --- | --- | --- | --- | --- | --- | --- | --- | --- | --- | --- | --- | --- | --- | --- | --- | --- |
| O=c1[nH]cc(F)c(=O)[nH]1 [5-Fluorouracil, reference compound] | 39.9 ± 6.44 | 12300 ± 2500 | 3620 ± 250 | 72.1 ± 3.71 | 26.4 ± 0.513 | 15000 ± 3870 | 16.07 | 48.27 | 46.87 | 13.13 | 34.63 | 54.3 ± 1.07 | 3460 ± 450 | 10900 ± 3400 | 37 ± 6.18 | DNA contents of the live population, G0/G1 phase, K562 ([5]; 4 µM, 48 h): 30.93%; total numbers of apoptotic cells, K562 [8]: 13.4%; total numbers of apoptotic cells, A549 ([9]; 4 µM): 28.3% |
| COc1cc(-c2nnc(SCC(=O)Nc3cc(-c4c[nH]c5ccccc45)n[nH]3)s2)cc(OC)c1OC [Compound 10b, N-(3-(1H-indol-3-yl)-1H-pyrazol-5-yl)-2-((5-(3,4,5-trimethoxyphenyl)-1,3,4-thiadiazol-2-yl)thio)acetamide] | 97.2 ± 0.526 | 13.2 ± 10 | 1120 ± 1390 | 77.9 ± 2.08 | 92.1 ± 3.01 | 210 ± 70 | 27.60 | 26.47 | 38.60 | 24.33 | 27.47 | 96.2 ± 0.737 | 120 | 850 | 88.4 ± 5.99 | IC50 ([1]; K562, Table 2, unit inferred, repeats Table 1, read-out: K562 (IC50, Table 2)): 13.2 ± 10 nM; IC50 ([1]; K562, as stated in abstract and conclusion, read-out: IC50 against K562): 10 nM; CC50 ([2]; HEK293 cells, Table 2, unit inferred, repeats Table 1): 1120 ± 1390 nM; migration of A549 cells, in words [11]: could inhibit the migration of A549 cells; apoptosis by DAPI staining, in words [12]: induced apoptosis; p-Akt protein level in A549 [13]: downregulated in a dose dependently manner; p-EGFR protein level in A549 [13]: downregulated in a dose dependently manner; cell cycle arrest in words, K562 ([5]; dose-dependent, 1, 2, 4 µM): arresting cells in the G2/M phase; cell cycle arrest in words, A549 ([6]; dose-dependent, 1, 2, 4 µM): arresting cells in the G2/M phase; MDM2 expression in K562 [14]: significantly downregulated; p53 protein level in K562 [14]: upregulated in a certain extent; IC50 ([7]; A549, Table 2, unit inferred, repeats Table 1, read-out: A549 (IC50, Table 2)): 124 ± 50 nM; IC50 ([7]; A549, as stated in abstract and conclusion, read-out: IC50 against A549): 12 nM; Q2, late apoptotic cells, K562 ([8]; 1 μM): 58.2%; Q2, late apoptotic cells, K562 ([8]; 2 μM): 67.8%; Q2, late apoptotic cells, K562 ([8]; 4 μM): 73.2%; Q2, late apoptotic cells, A549 ([9]; 1 μM): 8.36%; Q2, late apoptotic cells, A549 ([9]; 2 μM): 16.0%; Q2, late apoptotic cells, A549 ([9]; 4 μM): 35.7%; IC50 [10]: 853 ± 720 nM |
| C=CCSc1nnc(-c2cc3ccccc3[nH]2)n1N=Cc1c[nH]c2ccccc12 [Compound C] | – | – | – | – | – | – | – | – | – | – | – | – | – | – | – | IC50 [15]: 19.8 nM |
| Nn1c(SCC(=O)Nc2cc(-c3c[nH]c4ccccc34)n[nH]2)nnc1-c1ccccc1Br [Compound 11c, N-(3-(1H-indol-3-yl)-1H-pyrazol-5-yl)-2-((4-amino-5–(2-bromophenyl)-4H-1,2,4-triazol-3-yl)thio)acetamide] | 14.9 ± 1.32 | 43400 ± 1960 | 75400 ± 2350 | 1.73 ± 2.31 | 10.4 ± 1.73 | 74700 ± 13400 | – | – | – | – | – | 10.5 ± 0.521 | 67700 ± 1350 | 60800 ± 4730 | 12.3 ± 2.04 | melting point: 194 to 195 °C |
